The record followed here is ChEMBL document CHEMBL3872259, “Synthesis, characterization, and in vitro SAR evaluation of N,N'-bis(arylmethyl)-C2-alkyl substituted imidazolium salts” (Bioorg Med Chem Lett, 2017).

The nature of one data set: Antiproliferative activity against human NCI-H1975 cells assessed as reduction in cell viability measured after 72 hrs by MTT assay. The following applies: NCI-H1975, 72 h. Type of data set: functional, cell-based. A general note: Tetrazolium dyes change colour on reduction, which living cells bring about.
As usually defined, the IC50 is the concentration needed to halve the response being measured. On to `[Cl-].c1ccc(-c2n(Cc3ccc4ccccc4n3)cc[n+]2Cc2ccc3ccccc3n2)cc1`, for which the IC50 is 2 µM.

On to `OCc1n(Cc2ccc3ccccc3c2)cc[n+]1Cc1ccc2ccccc2c1.[Br-]`, for which the IC50 amounted to 7 µM.

Consider `CCCc1n(Cc2ccc3ccccc3n2)cc[n+]1Cc1ccc2ccccc2c1.[Cl-]`, for which the IC50 is 2 µM.

As for `CCc1n(Cc2ccc3ccccc3c2)cc[n+]1Cc1ccc2ccccc2n1.[Cl-]`, the IC50 was < 1 µM.

The next data set is described as follows: Antiproliferative activity against human HOP92 cells assessed as cell growth at 10 uM measured after 48 hrs by sulforhodamine B assay relative to control. The class given is functional. The following applies: HOP-92, 48 h, read-out: Activity. On the technique in general: In SRB staining, fixed cells bind dye roughly in proportion to their protein.
Regarding `OCc1n(Cc2ccc3ccccc3c2)cc[n+]1Cc1ccc2ccccc2c1.[Br-]`, the growth at 10 µM was -2.81%.

`CCCc1n(Cc2ccc3ccccc3n2)cc[n+]1Cc1ccc2ccccc2c1.[Cl-]`: the growth at 10 µM was -18.6%.

The next data set can be described thus: Antiproliferative activity against human HCC827 cells assessed as reduction in cell viability measured after 72 hrs by MTT assay. The class given is functional, cell-based. The following applies: HCC827, 72 h.
As for `[Cl-].c1ccc(-c2n(Cc3ccc4ccccc4n3)cc[n+]2Cc2ccc3ccccc3n2)cc1`, the IC50 is 8 µM.

On to `OCc1n(Cc2ccc3ccccc3c2)cc[n+]1Cc1ccc2ccccc2c1.[Br-]`, for which the IC50 was 12 µM.

As for `CCCc1n(Cc2ccc3ccccc3n2)cc[n+]1Cc1ccc2ccccc2c1.[Cl-]`, the IC50 came to 6 µM.

On to `CCc1n(Cc2ccc3ccccc3c2)cc[n+]1Cc1ccc2ccccc2n1.[Cl-]`, for which the IC50 is 2 µM.

The next data set can be described thus: Growth inhibition of human HOP92 cells measured after 48 hrs by sulforhodamine B assay. Type of data set: functional. The following applies: HOP-92, 48 h.
What is called GI50 is the concentration that inhibits growth by half. In general, TGI refers to the concentration at which net growth stops. The compound `CCCc1n(Cc2ccc3ccccc3n2)cc[n+]1Cc1ccc2ccccc2c1.[Cl-]` showed a 50% growth inhibitory concentration (GI50) of 0.188 µM and a TGI of 1.12 µM.

The data set is the same for the next values; noted with them: HOP-92, 48 h, read-out: LC50 (the source's name).
Take `CCCc1n(Cc2ccc3ccccc3n2)cc[n+]1Cc1ccc2ccccc2c1.[Cl-]`: the CC50 was determined as 9.13 µM.

Another data set is described as follows: Antiproliferative activity against human NCI-H23 cells assessed as cell growth at 10 uM measured after 48 hrs by sulforhodamine B assay relative to control. Type of data set: functional. The following applies: NCI-H23, 48 h, read-out: Activity.
As to `OCc1n(Cc2ccc3ccccc3c2)cc[n+]1Cc1ccc2ccccc2c1.[Br-]`, the growth at 10 µM worked out at 67.7%.

Take `CCCc1n(Cc2ccc3ccccc3n2)cc[n+]1Cc1ccc2ccccc2c1.[Cl-]`: the growth at 10 µM was -11.6%.

The next data set is described as follows: Antiproliferative activity against human NCI-H460 cells assessed as cell growth at 10 uM measured after 48 hrs by sulforhodamine B assay relative to control. Type of data set: functional. The following applies: NCI-H460, 48 h, read-out: Activity.
In the case of `OCc1n(Cc2ccc3ccccc3c2)cc[n+]1Cc1ccc2ccccc2c1.[Br-]`, the growth at 10 µM is 53.1%.

Take `CCCc1n(Cc2ccc3ccccc3n2)cc[n+]1Cc1ccc2ccccc2c1.[Cl-]`: the growth at 10 µM stood at 7.73%.

A short description of another data set: Growth inhibition of human NCI-H23 cells measured after 48 hrs by sulforhodamine B assay. Type of data set: functional. The following applies: NCI-H23, 48 h.
With `CCCc1n(Cc2ccc3ccccc3n2)cc[n+]1Cc1ccc2ccccc2c1.[Cl-]`, the GI50 is 0.479 µM and the TGI came out at 10.6 µM.

The data set is the same for the next values; noted with them: NCI-H23, 48 h, read-out: LC50 (the source's name).
In the case of `CCCc1n(Cc2ccc3ccccc3n2)cc[n+]1Cc1ccc2ccccc2c1.[Cl-]`, the CC50 was found to be 52 µM.

The next data set in a line: Growth inhibition of human HOP62 cells measured after 48 hrs by sulforhodamine B assay. The following applies: HOP-62, 48 h. The class given is functional.
Compound `CCCc1n(Cc2ccc3ccccc3n2)cc[n+]1Cc1ccc2ccccc2c1.[Cl-]` gave a GI50 of 1.63 µM and a TGI of 5.38 µM.

The same data set, now with this note: HOP-62, 48 h, read-out: LC50 (the source's name).
`CCCc1n(Cc2ccc3ccccc3n2)cc[n+]1Cc1ccc2ccccc2c1.[Cl-]`: the CC50 worked out at 26.1 µM.

The next data set is described as follows: Antiproliferative activity against human EKVX cells assessed as cell growth at 10 uM measured after 48 hrs by sulforhodamine B assay relative to control. Type of data set: functional. The following applies: read-out: Activity.
Regarding `OCc1n(Cc2ccc3ccccc3c2)cc[n+]1Cc1ccc2ccccc2c1.[Br-]`, the growth at 10 µM stood at 83.3%.

Take `CCCc1n(Cc2ccc3ccccc3n2)cc[n+]1Cc1ccc2ccccc2c1.[Cl-]`: the growth at 10 µM was 41.6%.

The next data set can be described thus: Antiproliferative activity against human NCI-H226 cells assessed as cell growth at 10 uM measured after 48 hrs by sulforhodamine B assay relative to control. The following applies: NCI-H226, 48 h, read-out: Activity. The class given is functional.
With `OCc1n(Cc2ccc3ccccc3c2)cc[n+]1Cc1ccc2ccccc2c1.[Br-]`, the growth at 10 µM amounted to 61.6%.

`CCCc1n(Cc2ccc3ccccc3n2)cc[n+]1Cc1ccc2ccccc2c1.[Cl-]`: the growth at 10 µM came to 12.3%.

The next data set can be described thus: Growth inhibition of human EKVX cells measured after 48 hrs by sulforhodamine B assay. Type of data set: functional.
Details: not given
In turn, `CCCc1n(Cc2ccc3ccccc3n2)cc[n+]1Cc1ccc2ccccc2c1.[Cl-]` gave a GI50 of 2.16 µM and a TGI of 14.9 µM.

Staying with this data set, now noted: read-out: LC50 (the source's name).
For `CCCc1n(Cc2ccc3ccccc3n2)cc[n+]1Cc1ccc2ccccc2c1.[Cl-]`, the CC50 is 52.7 µM.

A short description of a further data set: Aqueous solubility of the compound. Type of data set: physicochemical. The following applies: buffer.
A word on the solubility: it is how much of the substance goes into solution per volume. A high value points to a readily soluble substance. `[Cl-].c1ccc(-c2n(Cc3ccc4ccccc4n3)cc[n+]2Cc2ccc3ccccc3n2)cc1`: the solubility is listed as > 80 mM.

Regarding `OCc1n(Cc2ccc3ccccc3c2)cc[n+]1Cc1ccc2ccccc2c1.[Br-]`, the solubility is listed as < 0.5 mM.

On to `CCCc1n(Cc2ccc3ccccc3n2)cc[n+]1Cc1ccc2ccccc2c1.[Cl-]`, for which the solubility is > 10 mM.

On to `CCc1n(Cc2ccc3ccccc3c2)cc[n+]1Cc1ccc2ccccc2n1.[Cl-]`, for which the solubility is > 10 mM.

The next data set can be described thus: Growth inhibition of human NCI-H226 cells measured after 48 hrs by sulforhodamine B assay. Type of data set: functional. The following applies: NCI-H226, 48 h.
Take `CCCc1n(Cc2ccc3ccccc3n2)cc[n+]1Cc1ccc2ccccc2c1.[Cl-]`: it took 1.2 µM to inhibit growth by half (GI50) and the concentration for total growth inhibition (TGI) is 7.6 µM.

Still in this data set, the particulars now being: NCI-H226, 48 h, read-out: LC50 (the source's name).
For `CCCc1n(Cc2ccc3ccccc3n2)cc[n+]1Cc1ccc2ccccc2c1.[Cl-]`, the CC50 came out at 39.7 µM.

Another data set is described as follows: Antiproliferative activity against human A549/ATCC cells assessed as cell growth at 10 uM measured after 48 hrs by sulforhodamine B assay relative to control. The following applies: A549, 48 h, read-out: Activity. Type of data set: functional.
For `OCc1n(Cc2ccc3ccccc3c2)cc[n+]1Cc1ccc2ccccc2c1.[Br-]`, the growth at 10 µM was 68.6%.

With `CCCc1n(Cc2ccc3ccccc3n2)cc[n+]1Cc1ccc2ccccc2c1.[Cl-]`, the growth at 10 µM is 39.1%.

The next data set in a line: Antiproliferative activity against human A549 cells assessed as reduction in cell viability measured after 72 hrs by MTT assay. The class given is functional, cell-based. The following applies: A549, 72 h.
With `[Cl-].c1ccc(-c2n(Cc3ccc4ccccc4n3)cc[n+]2Cc2ccc3ccccc3n2)cc1`, the IC50 was found to be 14 µM.

Turning to `OCc1n(Cc2ccc3ccccc3c2)cc[n+]1Cc1ccc2ccccc2c1.[Br-]`, the IC50 was > 30 µM.

In general, LC50 refers to the concentration lethal to half of the exposed cells or organisms. On to `CCCc1n(Cc2ccc3ccccc3n2)cc[n+]1Cc1ccc2ccccc2c1.[Cl-]`, for which the GI50 came out at 1.88 µM, the IC50 was 3 µM, the LC50 is 37.3 µM and the TGI came out at 11.8 µM.

The next data set is described as follows: Antiproliferative activity against human HOP62 cells assessed as cell growth at 10 uM measured after 48 hrs by sulforhodamine B assay relative to control. The class given is functional. The following applies: HOP-62, 48 h, read-out: Activity.
For the compound `OCc1n(Cc2ccc3ccccc3c2)cc[n+]1Cc1ccc2ccccc2c1.[Br-]`, the growth at 10 µM was 75%.

`CCCc1n(Cc2ccc3ccccc3n2)cc[n+]1Cc1ccc2ccccc2c1.[Cl-]`: the growth at 10 µM is 8.38%.

A short description of the next data set: Growth inhibition of human NCI-H322M cells measured after 48 hrs by sulforhodamine B assay. The class given is functional.
Details: not given
Compound `CCCc1n(Cc2ccc3ccccc3n2)cc[n+]1Cc1ccc2ccccc2c1.[Cl-]` registered a GI50 of 3.46 µM and a TGI of 15 µM.

Still in this data set, the particulars now being: read-out: LC50 (the source's name).
In the case of `CCCc1n(Cc2ccc3ccccc3n2)cc[n+]1Cc1ccc2ccccc2c1.[Cl-]`, the CC50 worked out at 39.6 µM.

A further data set in a line: Growth inhibition of human NCI-H522 cells measured after 48 hrs by sulforhodamine B assay. The following applies: NCI-H522, 48 h. The class given is functional.
Take `CCCc1n(Cc2ccc3ccccc3n2)cc[n+]1Cc1ccc2ccccc2c1.[Cl-]`: the GI50 was found to be 0.249 µM, the LC50 (50% lethal concentration) is 4.59 µM and total growth inhibition (TGI) required 1.13 µM.

A further data set is described as follows: Antiproliferative activity against human NCI-H522 cells assessed as cell growth at 10 uM measured after 48 hrs by sulforhodamine B assay relative to control. The following applies: NCI-H522, 48 h, read-out: Activity. The class given is functional.
Turning to `CCCc1n(Cc2ccc3ccccc3n2)cc[n+]1Cc1ccc2ccccc2c1.[Cl-]`, the growth at 10 µM is -0.78%.

The nature of another data set: Antiproliferative activity against human NCI-H322M cells assessed as cell growth at 10 uM measured after 48 hrs by sulforhodamine B assay relative to control. Type of data set: functional. The following applies: read-out: Activity.
With `OCc1n(Cc2ccc3ccccc3c2)cc[n+]1Cc1ccc2ccccc2c1.[Br-]`, the growth at 10 µM is 78.9%.

In the case of `CCCc1n(Cc2ccc3ccccc3n2)cc[n+]1Cc1ccc2ccccc2c1.[Cl-]`, the growth at 10 µM worked out at 25.7%.

A short description of another data set: Antiproliferative activity against human NCI-H460 cells assessed as reduction in cell viability measured after 72 hrs by MTT assay. The following applies: NCI-H460, 72 h. The class given is functional, cell-based.
Take `[Cl-].c1ccc(-c2n(Cc3ccc4ccccc4n3)cc[n+]2Cc2ccc3ccccc3n2)cc1`: the IC50 was determined as 8 µM.

Consider `OCc1n(Cc2ccc3ccccc3c2)cc[n+]1Cc1ccc2ccccc2c1.[Br-]`, for which the IC50 turned out to be 14 µM.

For the compound `CCCc1n(Cc2ccc3ccccc3n2)cc[n+]1Cc1ccc2ccccc2c1.[Cl-]`, the GI50 stood at 0.658 µM, the IC50 was found to be 3 µM and the TGI turned out to be 10.6 µM.

The same data set, now with this note: NCI-H460, 72 h, read-out: LC50 (the source's name).
Regarding `CCCc1n(Cc2ccc3ccccc3n2)cc[n+]1Cc1ccc2ccccc2c1.[Cl-]`, the CC50 came to 46.5 µM.
